What all share (assay type): in vivo
Assay [1] relates to cucumber downy mildew (Pseudoperonospora cubensis (Berk. et Curt.) Rostov). Briefly: Protective effect against cucumber downy mildew on potted plants. The note with it: grading 100-0 (100 no infection, 0 most serious infection), read-out: protectant activity against cucumber downy mildew. The method, then: (§1) Fungicidal activity of the compounds in the present invention against many kinds diseases were carried out. The procedure of fungicidal activity determination is as follows:
(§2) The fungicidal activity was tested in vivo manner on the potted plants. The test compounds of the present invention were dissolved in proper solvent (choosing the solvent according their dissolving ability to the compounds, the solvents could be acetone, methanol or N,N-dimethylformide, etc. The volume ratio between solvent and liquid sprayed was equal to or less than 0.05) and dilute with water contain 0.1% Tween 80 to given concentrations. Compounds of present invention was sprayed onto the leaves of seedling according to the designed concentration. Meanwhile, water was set as the blank control, three replicates were set for each treatment, the spore suspension were inoculated on the second day after treatment, then the plants were placed in an artificial climate chamber (temperature: day 25° C., night 20° C., relative humidity 95 to 100%). 24 hours later, the plants were moved to green house to cultivated. The plants which not need to control humidity was inoculated spore suspension in green house and cultivated in green house directly. The results were investigated after the plants were fully infected relative to the blank control (usually one week). The test resluts grading 100-0 refers to the <A Manual of Assessment Keys for Plant Diseases> which edited by American Phytopathological Society. “100” refer to no infection and “0” refer to the most serious infection
Protective effect against cucumber downy mildew (Pseudoperonospora cubensis (Berk. et Curt.) Rostov)
According the test method described above, parallel test were carried out between compounds 2, 4, 11, 13, 71 and 111 of present invention and the known compounds KC1, KC2, KC3, KC4, KC5 and KC6 (The compounds were self-made and the structure was confirmed by ^1H NMR consistent with the description of the procedures).

In assay [2] the test system is cucumber anthracnose (Colletotrichum orbiculare). The experiment in a line: Protective effect against cucumber anthracnose on potted plants. The note with it: 400 ppm, foliar spray. The method, then: as §1
The fungicidal activity was tested in vivo manner on the potted plants. The test compounds of the present invention were dissolved in proper solvent (choosing the solvent according their dissolving ability to the compounds, the solvents could be acetone, methanol or N,N-dimethylformide, etc. The volume ratio between solvent and liquid sprayed was equal to or less than 0.05) and dilute with water contain 0.1% Tween 80 to given concentrations. Compounds of present invention was sprayed onto the leaves of seedling according to the designed concentration. Meanwhile, water was set as the blank control, three replicates were set for each treatment, the spore suspension were inoculated on the second day after treatment, then the plants were placed in an artificial climate chamber (temperature: day 25° C., night 20° C., relative humidity 95 to 100%). 24 hours later, the plants were moved to green house to cultivated. The plants which not need to control humidity was inoculated spore suspension in green house and cultivated in green house directly. The results were investigated after the plants were fully infected relative to the blank control (usually one week). […]

For assay [3], the system named is corn rust (Puccinia sorghi Schw.). The experiment in a line: Protective effect against corn rust on potted plants. The following applies: grading 100-0. As to the method: as §1, §2
Protective Effect Against Corn Rust (Puccinia sorghi Schw.):
According the test method described above, parallel test were carried out between compound 13 of present invention and the known compound KC1.
According the test method described above, parallel test were carried out between compound 11 of present invention and the known compound KC2.
According the test method described above, parallel test were carried out between compound 71 of present invention and the known compounds KC5 and KC6.

SMILES strings stand for the structures.

`CCCCC(C)Oc1cccc(NC(=O)c2cn(C)nc2C(C)C)c1C` (stereo not shown) [Compound 2]: in assay [1], the pest or weed control at 400 ppm stood at 100%.

On to `CCCCC(C)Oc1cccc(NC(=O)c2c(C)nn(C)c2Cl)c1C` (stereo not shown) [Compound 4], for which the “protective effect against cucumber anthracnose” value in assay [2] was no less than 80%. Besides, the pest or weed control at 400 ppm in assay [1] amounted to 100%.

In the case of `CCCCC(C)Oc1cccc(NC(=O)c2c(C(F)F)nn(C)c2Cl)c1C` (stereo not shown) [Compound 11], the “protectant activity against corn rust” value was found to be 100 in assay [3] (0.39 ppm, table 4); 100 in assay [3] (1.5625 ppm, table 4); 100 in assay [3] (6.25 ppm, table 4). Further, in assay [1], the pest or weed control at 400 ppm was 85%.

For `CCCCC(C)Oc1cccc(NC(=O)c2cn(C)nc2C(F)(F)F)c1C` (stereo not shown) [Compound 13], the “protectant activity against corn rust” value was found to be 100 in assay [3] (6.25 ppm, table 3) and 100 in assay [3] (400 ppm, table 3). Besides, the pest or weed control at 400 ppm in assay [1] amounted to 100%.

For `CCCCC(C)Oc1cccc(NC(=O)c2sc(C)nc2C(F)(F)F)c1C` (stereo not shown) [Compound 71], the “protectant activity against corn rust” value stood at 100 in assay [3] (1.56 ppm, table 5); 100 in assay [3] (6.25 ppm, table 5); 100 in assay [3] (400 ppm, table 5). Besides, the pest or weed control at 400 ppm in assay [1] is 100%.

Regarding `CCCC(C)Oc1cccc(NC(=O)c2sc(C(F)(F)F)nc2CC)c1C` (stereo not shown) [Compound 111], the pest or weed control at 400 ppm in assay [1] was 100%.

Take `Cc1c(NC(=O)c2cn(C)nc2C(F)(F)F)cccc1OC(C)C` [KC1, reference compound]: the “protectant activity against corn rust” value is 50 in assay [3] (6.25 ppm, table 3) and 100 in assay [3] (400 ppm, table 3). In addition, the pest or weed control at 400 ppm in assay [1] came out at 0%.

Consider `Cc1c(NC(=O)c2c(C(F)(F)F)nn(C)c2Cl)cccc1OC(C)C` [KC2, reference compound], for which the “protectant activity against corn rust” value was determined as 0 in assay [3] (0.39 ppm, table 4); 65 in assay [3] (1.5625 ppm, table 4); 100 in assay [3] (6.25 ppm, table 4). For the same compound, the pest or weed control at 400 ppm in assay [1] was found to be 0%.

Turning to `Cc1nn(C)cc1C(=O)Nc1cccc(OC(C)C)c1C` [KC3, reference compound], the pest or weed control at 400 ppm in assay [1] worked out at 0%.

As to `Cc1nn(C)c(Cl)c1C(=O)Nc1cccc(OC(C)C)c1C` [KC4, reference compound], the pest or weed control at 400 ppm in assay [1] came to 0%.

As for `Cc1nc(C)c(C(=O)Nc2cccc(OC(C)C)c2)s1` [KC5, reference compound], in assay [1], the pest or weed control at 400 ppm is 0%.

For the origin of these results see patent publication US10315998B2, “Amide compound and the preparation method and use thereof” (SHENYANG SINOCHEM AGROCHEMICALS R&D CO., LTD, priority 2015, dated 2019).
